Measured values as given in patent EP4603105A1, “PHARMACEUTICAL COMPOSITION CONTAINING CYCLIC COMPOUND HAVING SELECTIVE KRAS INHIBITORY EFFECT AGAINST HRAS AND NRAS” (CHUGAI SEIYAKU KABUSHIKI KAISHA, priority 2022, dated 2024).
*1 amine or outer side, *2 acyl side, *3 side chain or, on linkers, in order; H or OH if unused. Where a SMILES comes first, the peptide text is derived from it. Bridges are numbered along the chain shown (N, C = ends). [ ]: non-standard residue; d: D form. The star is where a group is joined. hPhe(3,5-F2-4-CF3) = N[C@@H](CCc1cc(F)c(C(F)(F)F)c(F)c1)C(=O)O; NPrPhe(4-CF3) = CCCN[C@@H](Cc1ccc(C(F)(F)F)cc1)C(=O)O; dαMeAlg = C[C@](CC=[*:3])(N[*:1])C(=O)[*:2]; NMeGly(cPent) = CN[C@H](C(=O)O)C1CCCC1; NMeSer(allyl) = C=CCOC[C@H](NC)C(=O)O; Hyp = O=C(O)[C@@H]1C[C@@H](O)CN1; NMeD = CN[C@@H](CC(=O)O)C(=O)O; Morpholide = C1CN(*)CCO1; Sar = CNCC(=O)O

Key:
[1] = target: GDP-bound NRAS wild-type protein (Homo sapiens, UniProt P01111); test: Binding to NRAS by surface plasmon resonance (SPR), KD and KD ratio to KRAS
In short: (§1)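 Single-cycle kinetics on GDP-loaded biotin-Avi RAS captured to ~100–300 RU; 75 s ascending injections, 100 µL/min, 30°C. HBS pH 7.4 + 10 mM MgCl2/10 µM GDP/4% DMSO. 1:1 fit, KD.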

HRAS wild-type protein = HRAS wild-type protein (Homo sapiens, UniProt P01112); test: Binding to HRAS by surface plasmon resonance (SPR), KD and KD ratio to KRAS
In short: as §1

[2] = tested on: human lung cancer strain NCI-H441; assay type: cell-based
In short: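 Proliferation was scored by […] measured after the reagent was added to cultures kept at 37°C in 5% carbon dioxide.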

[3] = ratio of KD for GDP-bound NRAS wild-type protein to KD for KRAS
[4] = ratio of KD for HRAS wild-type protein to KD for KRAS
[5] = ratio of KD value for GDP-bound NRAS wild-type protein to KD value for KRAS (SPR)
[6] = ratio of KD value for HRAS wild-type protein to KD value for KRAS (SPR)
[7] = ratio of the KD value with respect to GDP-bound NRAS wild-type protein to the KD value with respect to KRAS
[8] = ratio of the KD value with respect to HRAS wild-type protein to the KD value with respect to KRAS

Sequence of GDP-bound NRAS wild-type protein (P01111 whole entry): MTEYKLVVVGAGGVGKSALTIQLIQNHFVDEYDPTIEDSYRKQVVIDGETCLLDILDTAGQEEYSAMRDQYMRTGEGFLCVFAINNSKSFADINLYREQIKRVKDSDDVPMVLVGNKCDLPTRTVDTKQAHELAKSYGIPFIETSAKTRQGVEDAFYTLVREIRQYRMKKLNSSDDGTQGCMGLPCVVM
Sequence of HRAS wild-type protein (P01112 whole entry): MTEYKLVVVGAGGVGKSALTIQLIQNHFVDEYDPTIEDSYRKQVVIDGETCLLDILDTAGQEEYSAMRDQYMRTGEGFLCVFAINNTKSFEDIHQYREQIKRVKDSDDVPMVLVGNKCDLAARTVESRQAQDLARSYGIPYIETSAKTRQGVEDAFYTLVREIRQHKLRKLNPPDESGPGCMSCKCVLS

SMILES | NRAS /KRAS [1, 3] | HRAS /KRAS (HRAS wild-type protein; [4]) | IC50 [2] | NRAS /KRAS [1, 5] | HRAS /KRAS (HRAS wild-type protein; [6]) | NRAS /KRAS [1, 7] | HRAS /KRAS (HRAS wild-type protein; [8])
CCO[C@@H]1C[C@H]2C(=O)NC3(CCC3)C(=O)N(C)[C@@H](C3CCCC3)C(=O)N(C)[C@H](C(=O)N3CCOCC3)CC(=O)N(C)[C@@H](COC)C(=O)N[C@@H]([C@@H](C)CC)C(=O)N(C)CC(=O)N(C)[C@H]3CCCCCN(C3=O)[C@@H](Cc3ccc(C(F)(F)F)cc3)C(=O)N(C)CC(=O)N[C@@H](CCc3ccc(C(F)(F)F)c(Cl)c3)C(=O)N2C1 [PP0849] | B (a compound having 3 or more and less than 10 is denoted as B) | B (a compound having 3 or more and less than 10 is denoted as B) | 35.7 nM |  |  |  | 
CCC[C@H]1C(=O)N[C@@H](C2CCCC2)C(=O)N(C)CC(=O)N(C)[C@H]2C/C=C\CCN(C2=O)[C@@H](Cc2ccc(C)cc2)C(=O)N(C)CC(=O)N[C@@H](CCc2cc(F)c(C(F)(F)F)c(F)c2)C(=O)N2C[C@H](OCC)C[C@H]2C(=O)NC2(CC(C)(C)C2)C(=O)N(C)[C@@H](CC(C)(C)C)C(=O)N(C)[C@H](C(=O)N(C)C)CC(=O)N1C [PP2989] | AA (a compound having 20 or more is denoted as AA) | A (a compound having 10 or more and less than 20 is denoted as A) | 6.5 nM |  |  |  | 
CC[C@H](C)[C@@H]1NC(=O)[C@H](CC2CCCC2)N(C)C(=O)C[C@@H](C(=O)N(C)C)N(C)C(=O)[C@H](C2CCCC2)N(C)C(=O)C2(CCC2)NC(=O)[C@@H]2C[C@@H](C(F)(F)F)CN2C(=O)[C@H](CCc2cc(F)c(C(F)(F)F)c(F)c2)NC(=O)CN(C)C(=O)[C@H](Cc2ccc(C(F)(F)F)cc2)N2CC/C=C\C[C@@H](C2=O)N(C)C(=O)CN(C)C1=O [PP1505] |  |  | 4 nM | A (a compound having 10 or more and less than 20 is denoted as A) | A (a compound having 10 or more and less than 20 is denoted as A) |  | 
CCC[C@H]1C(=O)N[C@@H]([C@@H](C)CC)C(=O)N(C)CC(=O)N(C)[C@H]2C/C=C\CCN(C2=O)[C@@H](Cc2ccc(C(F)(F)F)cc2)C(=O)N(C)CC(=O)N[C@@H](CCc2ccc(C(F)(F)F)c(Cl)c2)C(=O)N2C[C@H](OCC)C[C@H]2C(=O)NC2(CC(C)(C)C2)C(=O)N(C)[C@@H](CC(F)(F)F)C(=O)N(C)[C@H](C(=O)N(C)C)CC(=O)N1C [PP2975] | A (a compound having 10 or more and less than 20 is denoted as A) | A (a compound having 10 or more and less than 20 is denoted as A) | 16.7 nM |  |  |  | 
CCCN1C(=O)CN(C)C(=O)CN(C)C(=O)[C@H]([C@@H](C)CC)NC(=O)[C@@H]2COCC=CC[C@@](C)(NC(=O)[C@@H]3C[C@@H](OCC)CN3C(=O)[C@H](CCc3cc(F)c(C(F)(F)F)c(F)c3)NC(=O)CN(C)C(=O)[C@@H]1Cc1ccc(C(F)(F)F)cc1)C(=O)N(C)[C@@H](C1CCCC1)C(=O)N(C)[C@H](C(=O)N1CCOCC1)CC(=O)N2C [PP0903] ([NMeSer(allyl)]I[Sar][Sar][NPrPhe(4-CF3)][Sar][hPhe(3,5-F2-4-CF3)][Hyp](Et)[dαMeAlg][NMeGly(cPent)][NMeD]-Morpholide; staple 1-9; lactam N-11) | B (a compound having 3 or more and less than 10 is denoted as B) | C (A compound having a KD ratio of 0.1 or more and less than 3 is denoted as C) | 596 nM |  |  |  | 
CCO[C@@H]1C[C@H]2C(=O)NC3(CC(C)(C)C3)C(=O)N(C)[C@@H](C3CCCC3)C(=O)N(C)[C@H](C(=O)N(C)C)CC(=O)N(C)[C@H]3CCCCCCc4ccc(cc4)C[C@@H](C(=O)N(C)CC(=O)N[C@@H](CCc4ccc(C(F)(F)F)c(OC)c4)C(=O)N2C1)N1CC/C=C\C[C@@H](C1=O)N(C)C(=O)CN(C)C(=O)[C@H]([C@@H](C)CC)NC3=O [PP3066] | A (a compound having 10 or more and less than 20 is denoted as A) | B (a compound having 3 or more and less than 10 is denoted as B) | 2.2 nM |  |  |  | 
CCC[C@H]1C(=O)N[C@@H](C2CCCC2)C(=O)N(C)CC(=O)N(C)[C@H]2C/C=C\CCN(C2=O)[C@@H](Cc2ccc(C(F)(F)F)cc2)C(=O)N(C)CC(=O)N[C@@H](CCc2ccc(C(F)(F)F)c(Cl)c2)C(=O)N2C[C@H](OCC)C[C@H]2C(=O)NC2(CC(C)(C)C2)C(=O)N(C)[C@@H](C2CCCC2)C(=O)N(C)[C@H](C(=O)N(C)C)CC(=O)N1C [PP2984] | A (a compound having 10 or more and less than 20 is denoted as A) | B (a compound having 3 or more and less than 10 is denoted as B) | 9.6 nM |  |  |  | 
CCC[C@H]1C(=O)N[C@@H]([C@@H](C)CC)C(=O)N(C2CC2)CC(=O)N(C)[C@H]2C/C=C\CCN(C2=O)[C@@H](Cc2ccc(C(F)(F)F)cc2)C(=O)N(C)CC(=O)N[C@@H](CCc2cc(F)c(C(F)(F)F)c(F)c2)C(=O)N2C[C@H](OCC)C[C@H]2C(=O)N(C)C2(CCC2)C(=O)N(C)[C@@H](C2CCCC2)C(=O)N(C)[C@H](C(=O)N2CCCCC2)CC(=O)N1C [PP3110] | A (a compound having 10 or more and less than 20 is denoted as A) | A (a compound having 10 or more and less than 20 is denoted as A) | 69.9 nM |  |  |  | 
CCO[C@@H]1C[C@H]2C(=O)NC3(CCC3)C(=O)N(C)[C@@H](C3CCCC3)C(=O)N(C)C(C(C)C)CC(=O)N(C)[C@@H](CC)C(=O)N[C@@H]([C@@H](C)CC)C(=O)N(C)CC(=O)N(C)[C@H]3C/C=C\CCN(C3=O)[C@@H](Cc3ccc(C(F)(F)F)cc3)C(=O)N(C)CC(=O)N[C@@H](CCc3cc(F)c(C(F)(F)F)c(F)c3)C(=O)N2C1 (stereo partly drawn) [PP1590] |  |  | 8 nM | A (a compound having 10 or more and less than 20 is denoted as A) | B (a compound having 3 or more and less than 10 is denoted as B) |  | 
CC[C@H](C)[C@@H]1NC(=O)[C@H](C2CCC2)N(C)C(=O)C[C@@H](C(=O)N(C)C)N(C)C(=O)[C@H](C2CCCC2)N(C)C(=O)C2(CC(C)(C)C2)NC(=O)[C@@H]2C[C@H](C)CN2C(=O)[C@H](CCc2ccc(C(F)(F)F)c(OC)c2)NC(=O)CN(C)C(=O)[C@H](Cc2ccc(C(F)(F)F)cc2)N2CC/C=C\C[C@@H](C2=O)N(C)C(=O)CN(C)C1=O [PP2011] |  |  | 10.3 nM |  |  | A (a compound having 10 or more and less than 20 is denoted as A) | A (a compound having 10 or more and less than 20 is denoted as A)
CCO[C@@H]1C[C@H]2C(=O)NC3(CC(C)(C)C3)C(=O)N(C)[C@@H](C(CC)CC)C(=O)N(C)[C@H](C(=O)N(C)C)CC(=O)N(C)[C@@H](COC)C(=O)N[C@@H]([C@@H](C)CC)C(=O)N(C)CC(=O)N(C)[C@H]3C/C=C\CCN(C3=O)[C@@H](Cc3ccc(C(F)(F)F)cc3)C(=O)N(C)CC(=O)N[C@@H](CCc3ccc(C(F)(F)F)c(Cl)c3)C(=O)N2C1 [PP2126] |  |  | 13.4 nM |  |  | A (a compound having 10 or more and less than 20 is denoted as A) | B (a compound having 3 or more and less than 10 is denoted as B)
CCCC[C@H]1C(=O)N[C@@H]([C@@H](C)CC)C(=O)N(C)CC(=O)N(C)[C@H]2C/C=C\CCN(C2=O)[C@@H](Cc2ccc(C(F)(F)F)cc2)C(=O)N(C)CC(=O)N[C@@H](CCc2ccc(C(F)(F)F)c(OC)c2)C(=O)N2C[C@H](OCC)C[C@H]2C(=O)NC2(CCC2)C(=O)N(C)[C@@H](C2CCCC2)C(=O)N(C)[C@H](C(=O)N(C)CC)CC(=O)N1C [PP2840] | A (a compound having 10 or more and less than 20 is denoted as A) | A (a compound having 10 or more and less than 20 is denoted as A) | 8.3 nM |  |  |  | 
CC[C@H](C)[C@@H]1NC(=O)[C@H](CC)N(C)C(=O)C[C@@H](C(=O)N(C)CC)N(C)C(=O)[C@H](C2CCCC2)N(C)C(=O)C2(CCC2)NC(=O)[C@@H]2C[C@@H](C)CN2C(=O)[C@H](CCc2ccc(C(F)(F)F)c(OC)c2)NC(=O)CN(C)C(=O)[C@H](Cc2ccc(C)cc2)N2CC/C=C\C[C@@H](C2=O)N(C)C(=O)CN(C)C1=O [PP1855] |  |  | 17.7 nM | AA (a compound having 20 or more is denoted as AA) | A (a compound having 10 or more and less than 20 is denoted as A) |  | 
CC[C@H](C)[C@@H]1NC(=O)[C@H](CC)N(C)C(=O)C[C@@H](C(=O)N(C)C)N(C)C(=O)[C@H](C2CCCC2)N(C)C(=O)C2(CCC2)NC(=O)[C@@H]2CCCCN2C(=O)[C@H](CCc2cc(F)c(C(F)(F)F)c(F)c2)NC(=O)CN(C)C(=O)[C@H](Cc2ccc(C(F)(F)F)cc2)N2CCCC[C@@H](C2=O)N(C)C(=O)CN(C)C1=O [PP0658] |  |  | 10.3 nM |  |  | C (A compound having a KD ratio of 0.1 or more and less than 3 is denoted as C) | B (a compound having 3 or more and less than 10 is denoted as B)
CC[C@H](C)[C@@H]1NC(=O)[C@H](CC2CC2)N(C)C(=O)C[C@@H](C(=O)N2CCCC2)N(C)C(=O)[C@H](C2CCCC2)N(C)C(=O)C2(CCCC2)NC(=O)[C@@H]2C[C@@H](C(F)(F)F)CN2C(=O)[C@H](CCc2cc(F)c(C(F)(F)F)c(F)c2)NC(=O)CN(C)C(=O)[C@H](Cc2ccc(C(F)(F)F)cc2)N2CC/C=C\C[C@@H](C2=O)N(C)C(=O)CN(C)C1=O [PP1506] |  |  | 73.4 nM | AA (a compound having 20 or more is denoted as AA) | A (a compound having 10 or more and less than 20 is denoted as A) |  | 
